The subject of series [1] is P. berghei (NK-65 strain). The experiment in a line: In vivo antimalarial activity in P. berghei infected mice. The arrangement: species or system mice (Swiss Webster). The conditions noted are these: for apparent toxicity in vivo: oral, 30 mg/kg once daily for three days, mice.
Series [2] has as its system Plasmodium falciparum (W2 clone, IndoChina, chloroquine resistant). The series can be described thus: In vitro antimalarial activity, chloroquine resistant W2 clone. Type of series: cell-based. Conditions: W2, read-out: P. falciparum (W2 Clone) IC50.
Series [3] concerns Plasmodium falciparum (D6 clone, Sierra Leone, chloroquine sensitive). The series can be described thus: In vitro antimalarial activity, chloroquine sensitive D6 clone. The class given is cell-based. Conditions: D6, read-out: P. falciparum (D6 Clone) IC50.
Series [4] relates to Mycobacterium intracellulare. The series can be described thus: In vitro antimicrobial activity, M. intracellulare. The class given is cell-based. The conditions noted are these: read-out: M. intracellulare IC50.
In a further series the test system is malaria parasite. The conditions noted are these: cited from earlier work; for reduction in parasitemia: oral, 2 × 100 μmol/kg; for survival times versus chloroquine or artemisinin treated mice: single dose 50 or 100 μmol/kg.
Series [5] in a line: Cytotoxicity on Vero cells. Conditions: African green monkey.
Series [6] deals with African green monkey kidney fibroblast cells (Vero). Conditions: cited from earlier work.
The next series can be described thus: in vitro. The conditions noted are these: African green monkey.
The mark [7] stands for this setting: Vero cells (African green monkey kidney fibroblast cells).

The structures appear in SMILES notation. pIC50: −log10 of the molar value. Where only a bound is given, the exact number is not on record here.

Take `CCN(CC)CCCC(C)Nc1ccnc2cc(Cl)ccc12` (centres unmarked) [Chloroquine]: the “suppression of the parasitemia” value in series [1] (chloroquine control, 10 mg/kg, three doses) is given as 100%. The pIC50 (usually the negative decadic logarithm of the IC50, by convention in mol/L) in series [2] was 6.32; in series [3] it was 7.30.
As to `O[C@]12C=C(c3nccc4c3[nH]c3ccccc34)[C@@H]3CCN(CCCC/C=C\CC1)C[C@@]31C[C@@H]3/C=C\CCCCN3[C@H]12` [Compound 1, Manzamine A], the pIC50 in series [4] is 6.19. Moreover, in the series on malaria parasite, the reduction in parasitemia is listed as 90% and the “survival times versus chloroquine or artemisinin treated mice” value was “significant improvements in survival times”. In series [5], this compound gave a pIC50 of 6.44. Moreover, the “TC50 against Vero cells” value in series [6] is 365 nM.
For `Oc1cccc2c1[nH]c1c(C3=C[C@@]4(O)CC/C=C\CCCCN5CC[C@@H]3[C@]3(C[C@@H]6/C=C\CCCCN6[C@H]34)C5)nccc12` [Compound 2, 8-Hydroxymanzamine A], in the series with malaria parasite, the reduction in parasitemia was 90% and the “survival times versus chloroquine or artemisinin treated mice” value is recorded as “significant improvements in survival times”.
With `CCC(=O)Nc1ccc2[nH]c3c(C4=C[C@@]5(O)CC/C=C\CCCCN6CC[C@@H]4[C@]4(C[C@@H]7/C=C\CCCCN7[C@H]45)C6)nccc3c2c1` [Compound 6, 6-n-Propamidomanzamine A], the negative-log IC50 (pIC50) in series [5] (setting [7]) was < 6.33.
With `CC(C)C(=O)Nc1ccc2[nH]c3c(C4=C[C@@]5(O)CC/C=C\CCCCN6CC[C@@H]4[C@]4(C[C@@H]7/C=C\CCCCN7[C@H]45)C6)nccc3c2c1` [Compound 8, 6-Isobutamidomanzamine A], the pIC50 in series [5] was < 6.33.
Consider `CCCCC(=O)Nc1ccc2[nH]c3c(C4=C[C@@]5(O)CC/C=C\CCCCN6CC[C@@H]4[C@]4(C[C@@H]7/C=C\CCCCN7[C@H]45)C6)nccc3c2c1` [Compound 9, 6-n-Pentamidomanzamine A], for which the pIC50 in the series “in vitro” was < 6.33.
In the case of `CC(C)(C)C(=O)Nc1ccc2[nH]c3c(C4=C[C@@]5(O)CC/C=C\CCCCN6CC[C@@H]4[C@]4(C[C@@H]7/C=C\CCCCN7[C@H]45)C6)nccc3c2c1` [Compound 10, 6-Pivalamidomanzamine A], in series [5] (setting [7]), the pIC50 is < 6.33.
Consider `CCCCCC(=O)Nc1ccc2[nH]c3c(C4=C[C@@]5(O)CC/C=C\CCCCN6CC[C@@H]4[C@]4(C[C@@H]7/C=C\CCCCN7[C@H]45)C6)nccc3c2c1` [Compound 11, 6-n-Hexamidomanzamine A], for which, in “in vitro”, the pIC50 is < 6.33.
As to `CC(C)(C)CC(=O)Nc1ccc2[nH]c3c(C4=C[C@@]5(O)CC/C=C\CCCCN6CC[C@@H]4[C@]4(C[C@@H]7/C=C\CCCCN7[C@H]45)C6)nccc3c2c1` [Compound 13, 6-(t-Butyl)-acetamidomanzamine A], in series [5] (setting [7]), the pIC50 was < 6.33.
Turning to `O=C(Nc1ccc2[nH]c3c(C4=C[C@@]5(O)CC/C=C\CCCCN6CC[C@@H]4[C@]4(C[C@@H]7/C=C\CCCCN7[C@H]45)C6)nccc3c2c1)C1CCCCC1` [Compound 14, 6-Cyclohexamidomanzamine A], in series [1], the “apparent toxicity in vivo” value was “no apparent toxicity”. Besides, the pIC50 in series [5] was < 6.33.
With `CC(C)C(=O)Nc1cccc2c1[nH]c1c(C3=C[C@@]4(O)CC/C=C\CCCCN5CC[C@@H]3[C@]3(C[C@@H]6/C=C\CCCCN6[C@H]34)C5)nccc12` [Compound 18, 8-Isobutamidomanzamine A], in series [5] (setting [7]), the pIC50 was < 6.33.
In the case of `CCCCC(=O)Nc1cccc2c1[nH]c1c(C3=C[C@@]4(O)CC/C=C\CCCCN5CC[C@@H]3[C@]3(C[C@@H]6/C=C\CCCCN6[C@H]34)C5)nccc12` [Compound 19, 8-n-Pentamidomanzamine A], the pIC50 in “in vitro” is < 6.33.
Regarding `CCCCCC(=O)Nc1cccc2c1[nH]c1c(C3=C[C@@]4(O)CC/C=C\CCCCN5CC[C@@H]3[C@]3(C[C@@H]6/C=C\CCCCN6[C@H]34)C5)nccc12` [Compound 21, 8-n-Hexamidomanzamine A], the “apparent toxicity in vivo” value in series [1] is recorded as “no apparent toxicity”.
In the case of `CC(C)(C)CC(=O)Nc1cccc2c1[nH]c1c(C3=C[C@@]4(O)CC/C=C\CCCCN5CC[C@@H]3[C@]3(C[C@@H]6/C=C\CCCCN6[C@H]34)C5)nccc12` [Compound 23, 8-(t-Butyl)-acetamidomanzamine A], the pIC50 in “in vitro” was < 6.33.
On the same count and under the same terms, as for `O=C(Nc1cccc2c1[nH]c1c(C3=C[C@@]4(O)CC/C=C\CCCCN5CC[C@@H]3[C@]3(C[C@@H]6/C=C\CCCCN6[C@H]34)C5)nccc12)C1CCCCC1` [Compound 24, 8-Cyclohexamidomanzamine A], the figure is < 6.33.

The values are drawn from paper PMC4883699 (Bioorganic & medicinal chemistry, 2009).
